Data: patent US20030073731A1, “Compositions and methods of the use thereof achiral analogues of CC-1065 and the duocarmycins” (priority 2000, published 2003)

How the values were obtained:
[1] = tested on: SK-MEL-2
[2] = tested on: plasmid pBR322 DNA; assay: Taq polymerase stop assay; type: biochemical
[3] = tested on: MOLT-4
[4] = tested on: OVCAR-4; type: cell-based, human
[5] = tested on: HS 578T; assay: cells; conditions: Homo sapiens
[6] = tested on: UO-31; assay: cells; conditions: Homo sapiens
[7] = tested on: HOP-62; assay: cells; conditions: Homo sapiens
[8] = tested on: COLO 205; assay: NCI in-vitro cytotoxicity screen, Colon Cancer panel; type: cell-based; conditions: Homo sapiens
Method: (§1) The compounds of this invention were also tested against the panel of 60 human cancer cell lines at the National Cancer Institute, Bethesda, Md. […] The cytotoxicity studies were conducted using a 48 hour exposure, and measuring the optical density of sulforhodamine B-derived color.

[9] = tested on: A498; assay: NCI in-vitro cytotoxicity screen, Renal Cancer panel; type: cell-based; conditions: Homo sapiens
Method: as §1

[10] = tested on: SN12C; assay: cells; conditions: Homo sapiens
[11] = tested on: A549/ATCC; assay: cells; conditions: Homo sapiens, A549, read-out: LC50
[12] = tested on: OVCAR-8; assay: cells; conditions: Homo sapiens
[13] = tested on: PC-3; assay: cells; conditions: Homo sapiens
[14] = tested on: ACHN; assay: cells; conditions: Homo sapiens
[15] = tested on: HOP-92; assay: cells; conditions: Homo sapiens

“4-(2-Chloroethyl)-3-[5-(5-benzofuran-2-carboxamido)indole-2-carboxamido]phenol [Compound 1]” was tested, and the GI50 [1] was 1320 nM, the TGI [1] was 2.67E-06 Molar and the “sequence selectivity compared with compound 27” value [2] was “stronger sequence selectivity than 27”. For the same molecule, the GI50 [3] was 1140 nM, the GI50 [4] was 2390 nM and the TGI [4] was 5.06E-06 Molar.

Work on `COC(=O)c1[nH]c2c(O)cc(NC(=O)c3cc4cc(OC)c(OC)c(OC)c4[nH]3)c(CCCl)c2c1C(=O)OC` [Compound 22, Dimethyl 4-(2-chloroethyl)-7-hydroxy-5-(5,6,7-trimethoxyindole-2-carboxamido)indole-2,3-dicarboxylate] yielded a GI50 [5] of 138 nM, a CC50 ([5]; read-out: LC50) of 946 nM and a GI50 ([6]; UO-31) of 98.8 nM. For the same molecule, the CC50 ([6]; UO-31, read-out: LC50) was > 50000 nM, the GI50 ([7]; HOP-62) was 91.4 nM and the CC50 ([7]; HOP-62, read-out: LC50) was 8510 nM. For the same molecule, the GI50 ([8]; COLO 205) was 233 nM, the CC50 ([8]; COLO 205, read-out: LC50) was > 50000 nM and the GI50 ([9]; A498) was 164 nM. The CC50 ([9]; A498, read-out: LC50) was 20700 nM, the GI50 [10] was 179 nM and the CC50 ([10]; read-out: LC50) was > 50000 nM. The CC50 [11] was < 50000 nM, the GI50 ([12]; OVCAR-8) was 70.9 nM and the CC50 ([12]; OVCAR-8, read-out: LC50) was 1760 nM. The GI50 ([13]; PC-3) was 61.7 nM, the CC50 ([13]; PC-3, read-out: LC50) was 10500 nM and the GI50 [14] was 44.6 nM. For the same molecule, the CC50 ([14]; read-out: LC50) was > 50000 nM, the GI50 ([15]; HOP-92) was 179 nM and the CC50 ([15]; HOP-92, read-out: LC50) was > 50000 nM.
